Measurements reported in US12492188B2, “1H-benzo[D]imidazole derivatives as TLR9 inhibitors for the treatment of fibrosis” (BRISTOL-MYERS SQUIBB COMPANY, priority 2020, dated 2025).
Where two headings read alike, the source gives them in different places.

Assays:
Assay type in all cases: cell-based
human TLR9 = biological target: T1, human TLR9 (Homo sapiens, UniProt Q9NR96); assay: TLR9 inhibition reporter assay (HEK-Blue cells, secreted embryonic alkaline phosphatase reporter)
T1 construct: host or cells: HEK-Blue cells (HEK293-derived reporter line)
T1 sequence (Q9NR96 26-1032): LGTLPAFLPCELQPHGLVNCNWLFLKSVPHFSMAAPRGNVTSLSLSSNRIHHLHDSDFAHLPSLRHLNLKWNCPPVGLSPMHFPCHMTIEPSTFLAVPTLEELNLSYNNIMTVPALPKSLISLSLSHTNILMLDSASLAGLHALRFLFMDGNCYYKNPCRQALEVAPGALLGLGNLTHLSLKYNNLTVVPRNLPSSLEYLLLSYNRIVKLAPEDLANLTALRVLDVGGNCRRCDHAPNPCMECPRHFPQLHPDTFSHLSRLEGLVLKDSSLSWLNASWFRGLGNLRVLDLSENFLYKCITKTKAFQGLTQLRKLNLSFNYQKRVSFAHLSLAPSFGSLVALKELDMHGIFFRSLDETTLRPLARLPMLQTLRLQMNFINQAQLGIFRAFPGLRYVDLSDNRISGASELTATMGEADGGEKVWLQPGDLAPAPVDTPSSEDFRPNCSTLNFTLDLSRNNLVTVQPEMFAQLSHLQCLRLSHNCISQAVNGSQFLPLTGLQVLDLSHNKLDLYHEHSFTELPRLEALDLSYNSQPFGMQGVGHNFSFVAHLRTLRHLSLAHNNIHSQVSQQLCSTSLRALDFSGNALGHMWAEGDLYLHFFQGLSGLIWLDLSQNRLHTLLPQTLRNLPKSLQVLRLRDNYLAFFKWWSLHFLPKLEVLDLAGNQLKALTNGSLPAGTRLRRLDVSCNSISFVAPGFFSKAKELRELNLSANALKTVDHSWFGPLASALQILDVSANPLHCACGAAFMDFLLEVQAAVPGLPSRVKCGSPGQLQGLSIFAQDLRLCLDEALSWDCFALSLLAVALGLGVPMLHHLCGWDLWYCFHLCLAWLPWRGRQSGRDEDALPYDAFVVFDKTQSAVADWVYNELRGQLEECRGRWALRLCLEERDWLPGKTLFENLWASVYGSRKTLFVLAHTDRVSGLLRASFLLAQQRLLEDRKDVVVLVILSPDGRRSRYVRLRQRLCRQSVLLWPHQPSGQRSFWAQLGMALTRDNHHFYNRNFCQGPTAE
Outline: (§1)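 HEK-Blue cells overexpressing the respective receptor, with an NF-κB/AP-1-driven SEAP reporter, were pre-treated with compound (0.05 nM–50 μM) for 30 min at room temperature. Stimulation used gardiquimod 7.5 μM (TLR7), R848 15.9 μM (TLR8) or ODN2006 5 nM (TLR9); SEAP was read after 22 h at 37 °C as percent inhibition.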

human TLR7 = biological target: T2, human TLR7 (Homo sapiens, UniProt Q9NYK1); assay: TLR7 inhibition reporter assay (HEK-Blue cells, secreted embryonic alkaline phosphatase reporter); conditions: HEK-Blue cells overexpressing human TLR7, stimulated with gardiquimod 7.5 μM; read-out: TLR 7 IC50
T2 construct: host or cells: HEK-Blue cells (HEK293-derived reporter line)
T2 sequence (Q9NYK1 27-1049): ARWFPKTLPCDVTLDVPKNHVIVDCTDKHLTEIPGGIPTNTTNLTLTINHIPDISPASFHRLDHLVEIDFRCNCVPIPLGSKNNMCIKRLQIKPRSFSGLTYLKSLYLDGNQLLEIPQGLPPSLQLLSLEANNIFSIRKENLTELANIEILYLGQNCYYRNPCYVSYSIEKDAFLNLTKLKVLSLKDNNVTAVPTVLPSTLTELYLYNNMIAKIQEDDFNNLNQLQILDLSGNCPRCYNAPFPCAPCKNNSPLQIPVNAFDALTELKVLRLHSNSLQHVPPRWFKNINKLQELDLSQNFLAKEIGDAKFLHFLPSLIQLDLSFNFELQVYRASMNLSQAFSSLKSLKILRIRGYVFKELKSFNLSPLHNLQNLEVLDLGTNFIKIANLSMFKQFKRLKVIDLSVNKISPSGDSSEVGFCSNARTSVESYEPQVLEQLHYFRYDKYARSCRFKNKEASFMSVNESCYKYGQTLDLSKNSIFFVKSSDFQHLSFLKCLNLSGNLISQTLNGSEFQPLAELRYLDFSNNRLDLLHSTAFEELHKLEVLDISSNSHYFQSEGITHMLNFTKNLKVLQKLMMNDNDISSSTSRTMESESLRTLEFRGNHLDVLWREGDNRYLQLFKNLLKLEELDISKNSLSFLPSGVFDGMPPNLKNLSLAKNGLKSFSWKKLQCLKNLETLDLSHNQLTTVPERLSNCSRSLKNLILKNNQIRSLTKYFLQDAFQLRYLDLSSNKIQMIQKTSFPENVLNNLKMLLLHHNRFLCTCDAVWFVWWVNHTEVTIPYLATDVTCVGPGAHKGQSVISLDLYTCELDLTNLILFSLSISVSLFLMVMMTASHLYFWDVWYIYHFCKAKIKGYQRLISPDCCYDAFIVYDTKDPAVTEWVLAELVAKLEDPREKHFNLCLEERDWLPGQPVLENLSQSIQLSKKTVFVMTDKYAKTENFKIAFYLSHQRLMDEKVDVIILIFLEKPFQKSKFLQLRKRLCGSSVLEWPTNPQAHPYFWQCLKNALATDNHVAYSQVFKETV
Outline: as §1

human TLR8 = biological target: T3, human TLR8 (Homo sapiens, UniProt Q9NR97); assay: TLR8 inhibition reporter assay (HEK-Blue cells, secreted embryonic alkaline phosphatase reporter); conditions: HEK-Blue cells overexpressing human TLR8, stimulated with R848 15.9 μM; read-out: TLR 8 IC50
T3 construct: host or cells: HEK-Blue cells (HEK293-derived reporter line)
T3 sequence (Q9NR97 27-1041): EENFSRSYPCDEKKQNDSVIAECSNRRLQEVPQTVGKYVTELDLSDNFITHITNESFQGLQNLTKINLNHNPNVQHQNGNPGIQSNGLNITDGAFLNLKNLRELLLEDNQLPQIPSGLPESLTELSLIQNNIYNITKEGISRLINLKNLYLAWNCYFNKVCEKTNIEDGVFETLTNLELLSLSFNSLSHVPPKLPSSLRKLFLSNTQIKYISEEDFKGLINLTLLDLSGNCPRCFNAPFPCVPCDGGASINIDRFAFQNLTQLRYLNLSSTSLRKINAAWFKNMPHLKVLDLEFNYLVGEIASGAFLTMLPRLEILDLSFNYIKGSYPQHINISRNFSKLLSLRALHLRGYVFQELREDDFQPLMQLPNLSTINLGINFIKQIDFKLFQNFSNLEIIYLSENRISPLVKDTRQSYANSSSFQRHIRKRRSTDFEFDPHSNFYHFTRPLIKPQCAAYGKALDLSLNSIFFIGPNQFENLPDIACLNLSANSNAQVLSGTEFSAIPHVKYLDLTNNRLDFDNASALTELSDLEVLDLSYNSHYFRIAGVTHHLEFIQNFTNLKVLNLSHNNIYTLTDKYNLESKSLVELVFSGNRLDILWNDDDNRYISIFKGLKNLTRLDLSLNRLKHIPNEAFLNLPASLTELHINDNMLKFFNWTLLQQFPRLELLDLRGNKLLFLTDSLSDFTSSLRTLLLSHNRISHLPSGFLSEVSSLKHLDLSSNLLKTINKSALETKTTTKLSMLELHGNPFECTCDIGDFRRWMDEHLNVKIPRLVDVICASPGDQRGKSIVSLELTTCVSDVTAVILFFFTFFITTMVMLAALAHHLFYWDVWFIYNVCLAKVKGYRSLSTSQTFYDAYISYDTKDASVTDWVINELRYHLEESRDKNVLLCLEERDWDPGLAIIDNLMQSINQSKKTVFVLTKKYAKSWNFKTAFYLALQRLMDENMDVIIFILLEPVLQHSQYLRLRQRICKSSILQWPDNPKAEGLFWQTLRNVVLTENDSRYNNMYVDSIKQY
Outline: as §1

[1] = HEK-Blue cells overexpressing human TLR9, stimulated with ODN2006 5 nM, read-out: TLR 9 IC50
[2] = HEK-Blue cells overexpressing human TLR9, stimulated with ODN2006 5 nM, 22 hour incubation, reporter readout

| IC50 (human TLR9) | IC50 (human TLR9; [1]) | IC50 (human TLR7) | IC50 (human TLR8) | IC50 (human TLR9; [2]) | SMILES |
| --- | --- | --- | --- | --- | --- |
| 500 nM | 500 nM | > 50000 nM | > 50000 nM |  | CC(C)CN1CCC(N2CCC(c3ccc4nc(-c5ccc(S(C)(=O)=O)cc5)n(C)c4c3F)CC2)CC1 [Example 259, 7-fluoro-6-(1′-isobutyl-[1,4′-bipiperidin]-4-yl)-1-methyl-2-(4-(methylsulfonyl)phenyl)-1H-benzo[d]imidazole] |
| 270 nM | 269 nM | 1000 nM | 16300 nM |  | COCCN1C2CCC1CC(N1CCC(c3ccc4nc(-c5ccc(S(C)(=O)=O)cc5)n(C)c4c3F)CC1)C2 (single isomer, unassigned) [Example 277, 7-fluoro-6-(1-(8-(2-methoxyethyl)-8-azabicyclo[3.2.1]octan-3-yl)piperidin-4-yl)-1-methyl-2-(4-(methylsulfonyl)phenyl)-1H-benzo[d]imidazole] |
|  | 269 nM | 5800 nM | > 50000 nM | 270 nM | CC(C)N1C2CCC1CC(N1CCC(c3cc(F)c4nc(-c5ccc(S(C)(=O)=O)cc5)n(C)c4c3)CC1)C2 (single isomer, unassigned) [Example 107, 4-fluoro-6-(1-(8-isopropyl-8-azabicyclo[3.2.1]octan-3-yl)piperidin-4-yl)-1-methyl-2-(4-(methylsulfonyl)phenyl)-1H-benzo[d]imidazole] |
|  |  | > 50000 nM | > 50000 nM | 29 nM | CC(C)N1C2CCC1CC(N1CCC(c3ccc4nc(-c5ccc(S(C)(=O)=O)cc5)[nH]c4c3F)CC1)C2 (single isomer, unassigned) [Example 95, 7-fluoro-6-(1-(8-isopropyl-8-azabicyclo[3.2.1]octan-3-yl)piperidin-4-yl)-2-(4-(methylsulfonyl)phenyl)-1H-benzo[d]imidazole] |
|  |  | > 50000 nM | > 50000 nM | 73 nM | CC(C)N1C2CCC1CC(N1CCC(c3ccc4nc(-c5ccc(S(C)(=O)=O)cc5)[nH]c4c3F)CC1)C2 (single isomer, unassigned) [Example 94, 7-fluoro-6-(1-(8-isopropyl-8-azabicyclo[3.2.1]octan-3-yl)piperidin-4-yl)-2-(4-(methylsulfonyl)phenyl)-1H-benzo[d]imidazole] |
|  | 76 nM | 1500 nM | 1300 nM | 76 nM | Cc1cc(-c2ccc(C3CCN(C4CCN(C)CC4)CC3)cc2)cc2c1nc(-c1ccc(S(C)(=O)=O)cc1)n2C [Example 400, 1,4-dimethyl-6-(4-(1′-methyl-[1,4′-bipiperidin]-4-yl)phenyl)-2-(4-(methylsulfonyl)phenyl)-1H-benzo[d]imidazole] |
|  |  | 19500 nM | > 50000 nM | 75 nM | CC(C)N1C2CCC1CC(N1CCC(c3cc4nc(-c5ccc(S(C)(=O)=O)cc5)n(C)c4cc3F)CC1)C2 (single isomer, unassigned) [Example 101, 6-fluoro-5-(1-(8-isopropyl-8-azabicyclo[3.2.1]octan-3-yl)piperidin-4-yl)-1-methyl-2-(4-(methylsulfonyl)phenyl)-1H-benzo[d]imidazole] |
|  |  | 17200 nM | > 50000 nM | 90 nM | Cn1c(-c2ccc(S(C)(=O)=O)cc2)nc2c(F)cc(C3CCN(C4CCCN(C5COC5)CC4)CC3)cc21 (single isomer, unassigned) [Example 109, 4-fluoro-1-methyl-2-(4-(methylsulfonyl)phenyl)-6-(1-(1-(oxetan-3-yl)azepan-4-yl)piperidin-4-yl)-1H-benzo[d]imidazole] |
| 96 nM | 96 nM | 3800 nM | > 50000 nM |  | Cn1c(-c2ccc(S(C)(=O)=O)cc2)nc2c(F)c(C3CCN(C4CC5CCC(C4)N5CC4CC4)CC3)ccc21 (single isomer, unassigned) [Example 191, 5-(1-(8-(cyclopropylmethyl)-8-azabicyclo[3.2.1]octan-3-yl)piperidin-4-yl)-4-fluoro-1-methyl-2-(4-(methylsulfonyl)phenyl)-1H-benzo[d]imidazole] |
| 640 nM | 641 nM | > 50000 nM | > 50000 nM |  | CS(=O)(=O)c1ccc(-c2nc3ccc(C4CCN(C5CCN(C6COC6)CC5)CC4)c(F)c3[nH]2)cc1 [Example 181, 7-fluoro-2-(4-(methylsulfonyl)phenyl)-6-(1′-(oxetan-3-yl)-[1,4′-bipiperidin]-4-yl)-1H-benzo[d]imidazole] |
| 160 nM | 155 nM | > 50000 nM | > 50000 nM |  | Cn1c(-c2ccc(S(C)(=O)=O)cc2)nc2c(F)c(C3CCN(C4CC5CCC(C4)N5C4CCOCC4)CC3)ccc21 (stereo not shown) [Example 197, 4-fluoro-1-methyl-2-(4-(methylsulfonyl)phenyl)-5-(1-(8-(tetrahydro-2H-pyran-4-yl)-8-azabicyclo[3.2.1]octan-3-yl)piperidin-4-yl)-1H-benzo[d]imidazole] |
